# Test results from patent US9247738B2, “Method and composition for inhibition of microbial growth in aqueous food transport and process streams” (Ecolab USA Inc., priority 2000, dated 2016).
# Key:
# Assay type in all cases: cell-based
# Listeria monocytogenes = assay: Kill of pathogenic bacteria on tomato surfaces and in the wash solution
# Procedure: The following procedure was employed for determining whether a composition killed pathogenic bacteria (e.g. Escherichia coli O157:H7, Listeria monocytogenes, or Salmonella javiana) on the surface of a fruit or vegetable. Bacteria were applied to tomato surfaces and allowed a 1-2 hour attachment time. […] After 1 minute, tomatoes were transferred to a solution that neutralized the peroxy acids and peroxides and massaged for 3 minutes to remove attached bacteria. The number of attached bacteria that survived treatment was determined using standard agar plating technique. The number of bacteria that “fell off” the tomato into the water or peroxyacetic/peroxyoctanoic acid mixture according to the present invention, and survived, was also determined by neutralization and agar plating technique. A similar experiment was conducted employing a peroxyacetic acid antimicrobial composition.
# yeast and mold = assay: Antimicrobial efficacy in fresh-cut vegetable processing water, Yeast & Mold Count
# Procedure: (§1) Vegetable processing water testing was done using the same antimicrobial agents as in laboratory aqueous system testing. The varying concentrations of each agent are listed in the results section. Municipal tap water was the diluent.
# (§2) The reduction of microorganisms in vegetable processing water treated with peroxyacetic acid or a peroxyacetic acid/peroxyoctanoic acid mixture was determined. Testing was done in two separate recycled water systems. In both systems, cut vegetables fell into a water stream that carried them to a de-watering area where they were collected for further processing. The water that the vegetables traveled in was routed to a balance tank that fed back into the original water stream thus completing the process loop. One system was used to wash cut, raw celery or cabbage. The other system was used to transport cut, raw potatoes to a blancher.
# (§3) During processing of each vegetable, 10 water samples were collected in sterile plastic bags containing an inactivating agent (0.01% sodium thiosulfate). 1 mL quantities were plated on Petrifilm® (3M, Inc.) Aerobic Plate Count, Coliform Count and Yeast & Mold Count media. Validation of these media using this procedure was performed prior to initiating testing (data not presented). Serial 100-fold dilutions were also plated. Petrifilms were incubated at 35° C. for 24 hours (Coliform Count), 35° C. for 48 hours (Aerobic Plate Count), or at room temperature for 72 hours (Yeast & Mold Count). The number of microorganisms was counted following incubation.
# (§4) The same analysis was used to evaluate the significance of reduction on vegetable surfaces.
# Penicillium species = assay: Rate of fungus kill in use-solution (mold conidia); conditions: Penicillium sp., 80 ppm total peracid, 25° C.
# Procedure: (§5) Routine transfer to Sabouraud Dextrose agar slants maintained cultures of Aspergillus species (from onion processing water), Penicillium species (from celery processing water) and Cladosporium species (from potato processing water). Conidia suspensions of each mold were prepared by subculturing each mold to Sabouraud Dextrose agar plates and incubating until thick aerial mycelia with conidia were evident. Conidia were harvested by adding approximately 10 mL of phosphate buffered water to the plate, scraping the mycelia and collecting the suspension in a flask. The suspension was filtered through sterile gauze to remove large mycelia fragments from the conidia. The resulting suspension was used for testing.
# (§6) Two antimicrobial agents were used for testing. The first agent contained peroxyacetic acid. The second contained a peroxyacetic acid/peroxyoctanoic acid mixture. Both agents were diluted in sterile deionized water to achieve a total peracid concentration of 80 ppm. The composition of the use-solutions were as follows:
# (§7) The rate at which peroxyacetic acid and a peroxyacetic acid/peroxyoctanoic acid mixture killed fungi was measured by inoculating use-solutions of each antimicrobial agent with fungi and then quantifying survivors after various exposure times.
# (§8) Testing was performed in duplicate. 99 mL of each antimicrobial use-solution was transferred to a 250 mL Erlenmeyer flask and allowed to equilibrate to 25° C. The liquid in the flask was swirled vigorously in a rapid circular motion and 1 mL of a fungus suspension was added. After 30 seconds, 2, 5 or 10 minutes 1 mL quantities of the use-solution were transferred to 9 mL of an inactivating solution including 0.1% sodium thiosulfate. 1 mL quantities of the inactivating solution were pour-plated using Sabouraud Dextrose agar. Serial 100-fold dilutions of the inactivating solution were also plated. Agar plates were incubated for 72 hours at 26° C. before counting survivors. The log reduction of fungi due to the antimicrobial agent was determined by comparing reduction to a water control.
# Aspergillus species = assay: Rate of fungus kill in use-solution (mold conidia); conditions: Aspergillus sp., 80 ppm total peracid, 25° C.
# Procedure: as §5, §6, §7, §8
# Cladosporium species = assay: Rate of fungus kill in use-solution (mold conidia); conditions: Cladosporium sp., 80 ppm total peracid, 25° C.
# Procedure: as §5, §6, §7, §8
# Salmonella javiana = assay: Kill of pathogenic bacteria on tomato surfaces and in the wash solution
# Procedure: (§9) The following procedure was employed for determining whether a composition killed pathogenic bacteria (e.g. Escherichia coli O157:H7, Listeria monocytogenes, or Salmonella javiana) on the surface of a fruit or vegetable. Bacteria were applied to tomato surfaces and allowed a 1-2 hour attachment time. Contaminated tomatoes were submersed in a peroxyacetic/peroxyoctanoic acid mixture according to the present invention (at a level yielding 40 ppm peroxyacetic acid) or water for 1 minute without agitation. After 1 minute, tomatoes were transferred to a solution that neutralized the peroxy acids and peroxides and massaged for 3 minutes to remove attached bacteria. The number of attached bacteria that survived treatment was determined using standard agar plating technique. The number of bacteria that “fell off” the tomato into the water or peroxyacetic/peroxyoctanoic acid mixture according to the present invention, and survived, was also determined by neutralization and agar plating technique. A similar experiment was conducted employing a peroxyacetic acid antimicrobial composition.
# Escherichia coli O157:H7 = assay: as above
# Procedure: as §9
# Candida parapsilosis = assay: Rate of fungus kill in use-solution; conditions: 80 ppm total peracid, 25° C.
# Procedure: (§10) Routine transfer to Sabouraud Dextrose agar slants maintained cultures of Candida parapsilosis (from blueberry processing water), Rhodotorula species (from celery processing water), Cryptococcus species (from potato processing water) and Zygosaccharomyces bailii (ATCC 60483). Growth was harvested by adding 5 mL of phosphate buffered water to the slant, mixing and then transferring the suspension into 90 mL of phosphate buffered water. The resulting suspension was used for testing.
# as §6, §7, §8
# Cryptococcus species = assay: Rate of fungus kill in use-solution; conditions: Cryptococcus sp., 80 ppm total peracid, 25° C.
# Procedure: as §10, §6, §7, §8
# [1] = tested on: Zygosaccharomyces bailii (ATCC 60483); assay: Rate of fungus kill in use-solution; conditions: Z. bailii, 80 ppm total peracid, 25° C.
# Procedure: as §10, §6, §7, §8
# Rhodotorula species = assay: Rate of fungus kill in use-solution; conditions: Rhodotorula sp., 80 ppm total peracid, 25° C.
# Procedure: as §10, §6, §7, §8
# coliform bacteria [2] = assay: Antimicrobial efficacy in fresh-cut vegetable processing water, Coliform Count
# Procedure: as §1, §2, §3, §4
# Aerobic Bacteria = assay: Antimicrobial efficacy on fresh-cut vegetables, aerobic bacteria; conditions: 30 second exposure to process water
# Procedure: as §1, §2
# (§11) Microorganism reduction on vegetable surfaces in the transport and process water was determined while water analyses were being conducted. Ten samples of each cut vegetable were collected just prior to falling into the process water stream and just after de-watering.
# (§12) Eleven grams of each sample were transferred to bag containing 99 mL of sterile phosphate buffered water. Contents of the bag were mixed in a Stomacher brand mixer for approximately 1 minute. Afterwards, 1 mL of the mixture was plated on Petrifilm brand Aerobic Plate Count, Coliform Count and Yeast & Mold Count media. 1 mL quantities of 100-fold serial dilutions were also plated. Petrifilms were incubated and enumerated as described above in this Example.
# as §4
# coliform bacteria [3] = assay: Antimicrobial efficacy on fresh-cut vegetables, coliform bacteria; conditions: 30 second exposure to process water
# Procedure: as §1, §2, §11, §12, §4
# total aerobic bacteria = assay: Antimicrobial efficacy in fresh-cut vegetable processing water, Aerobic Plate Count
# Procedure: as §1, §2, §3, §4
# Yeast & Mold = assay: Antimicrobial efficacy on fresh-cut vegetables, yeast & mold; conditions: 30 second exposure to process water
# Procedure: as §1, §2, §11
# Eleven grams of each sample were transferred to bag containing 99 mL of sterile phosphate buffered water. Contents of the bag were mixed in a Stomacher brand mixer for approximately 1 minute. […] 1 mL quantities of 100-fold serial dilutions were also plated. […]
# [4] = Cabbage process water, average peracid from POAA agent 26 ppm, from POAA/POOA agent 29 ppm
# [5] = Celery process water, average peracid from POAA agent 38 ppm, from POAA/POOA agent 39 ppm
# [6] = Potatoes process water, average peracid from POAA agent 54 ppm, from POAA/POOA agent 32 ppm
# [7] = Cabbage, peracid POAA agent 26 ppm, POAA/POOA agent 29 ppm
# [8] = Celery, peracid POAA agent 38 ppm, POAA/POOA agent 39 ppm
# [9] = Potatoes, peracid POAA agent 54 ppm, POAA/POOA agent 32 ppm
structure (smiles),measurement,setting,value
"CC(=O)OO [POAA, peroxyacetic acid]",reduction of L. monocytogenes on tomatoes,Listeria monocytogenes; 20 ppm POAA,84%
same,reduction of L. monocytogenes on tomatoes,Listeria monocytogenes; 40 ppm POAA,95%
same,reduction of L. monocytogenes on tomatoes,Listeria monocytogenes; 60 ppm POAA,98%
same,"Average number of microorganisms in process water, Yeast & Mold Count",yeast and mold; [4],2.02 log CFU/mL
same,"Average number of microorganisms in process water, Yeast & Mold Count",yeast and mold; [5],1.86 log CFU/mL
same,"Average number of microorganisms in process water, Yeast & Mold Count",yeast and mold; [6],5.48 log CFU/mL
same,Average log reduction of mold,Penicillium species; 2 Minutes,0 log
same,Average log reduction of mold,Penicillium species; 5 Minutes,0.45 log
same,Average log reduction of mold,Penicillium species; 10 Minutes,1.52 log
same,Average log reduction of mold,Aspergillus species; 2 Minutes,0 log
same,Average log reduction of mold,Aspergillus species; 5 Minutes,0 log
same,Average log reduction of mold,Aspergillus species; 10 Minutes,0 log
same,Average log reduction of mold,Cladosporium species; 2 Minutes,1.86 log
same,Average log reduction of mold,Cladosporium species; 5 Minutes,4.18 log
same,Average log reduction of mold,Cladosporium species; 10 Minutes,>4.18 log
same,reduction in amounts of S. javiana,Salmonella javiana; 20 ppm POAA,no reduction
same,reduction in amounts of S. javiana,Salmonella javiana; 40 ppm POAA,no reduction
same,reduction in amounts of S. javiana,Salmonella javiana; 60 ppm POAA,91%
same,reduction in the E. coli O157:H7 in tomato wash water,Escherichia coli O157:H7; 20 ppm POAA,57%
same,reduction in the E. coli O157:H7 in tomato wash water,Escherichia coli O157:H7; 40 ppm POAA,88%
same,reduction in the E. coli O157:H7 in tomato wash water,Escherichia coli O157:H7; 60 ppm POAA,94%
same,Average log reduction of yeast,Candida parapsilosis; 2 Minutes,1.49 log
same,Average log reduction of yeast,Candida parapsilosis; 5 Minutes,3.42 log
same,Average log reduction of yeast,Candida parapsilosis; 30 Seconds,0.34 log
same,Average log reduction of yeast,Cryptococcus species; 2 Minutes,>7.08 log
same,Average log reduction of yeast,Cryptococcus species; 5 Minutes,>7.08 log
same,Average log reduction of yeast,Cryptococcus species; 30 Seconds,>7.08 log
same,Average log reduction of yeast,[1]; 2 Minutes,0.18 log
same,Average log reduction of yeast,[1]; 5 Minutes,0.94 log
same,Average log reduction of yeast,[1]; 30 Seconds,0.16 log
same,Average log reduction of yeast,Rhodotorula species; 2 Minutes,>3.88 log
same,Average log reduction of yeast,Rhodotorula species; 5 Minutes,>3.88 log
same,Average log reduction of yeast,Rhodotorula species; 30 Seconds,>3.88 log
same,"Average number of microorganisms in process water, Coliform Count",coliform bacteria [2]; [4],0 log CFU/mL
same,"Average number of microorganisms in process water, Coliform Count",coliform bacteria [2]; [5],0 log CFU/mL
same,"Average number of microorganisms in process water, Coliform Count",coliform bacteria [2]; [6],0 log CFU/mL
same,"Average log reduction on fresh-cut vegetables, Aerobic Bacteria Reduction",Aerobic Bacteria; [7],0.84 log
same,"Average log reduction on fresh-cut vegetables, Aerobic Bacteria Reduction",Aerobic Bacteria; [8],1.07 log
same,"Average log reduction on fresh-cut vegetables, Aerobic Bacteria Reduction",Aerobic Bacteria; [9],1.54 log
same,"Average log reduction on fresh-cut vegetables, Coliform Bacteria Reduction",coliform bacteria [3]; [7],>0.88 log
same,"Average log reduction on fresh-cut vegetables, Coliform Bacteria Reduction",coliform bacteria [3]; [8],0.77 log
same,"Average log reduction on fresh-cut vegetables, Coliform Bacteria Reduction",coliform bacteria [3]; [9],>1.58 log
same,"Average number of microorganisms in process water, Aerobic Plate Count",total aerobic bacteria; [4],1.92 log CFU/mL
same,"Average number of microorganisms in process water, Aerobic Plate Count",total aerobic bacteria; [5],2.02 log CFU/mL
same,"Average number of microorganisms in process water, Aerobic Plate Count",total aerobic bacteria; [6],0.92 log CFU/mL
same,"Average log reduction on fresh-cut vegetables, Yeast & Mold Reduction",Yeast & Mold; [7],0.77 log
same,"Average log reduction on fresh-cut vegetables, Yeast & Mold Reduction",Yeast & Mold; [8],0.68 log
